How the values were obtained:
[1] = One-electron reduction potential E(1) by pulse radiolysis; assay type: physicochemical; conditions: determined by pulse radiolysis
[2] = test system: SKOV3: human ovarian carcinoma cell line; experiment: Proliferation IC50 assay, oxic/hypoxic, SKOV3; assay type: cell-based; conditions: for IC50: 4 h exposure under aerobic conditions; for HCR (hypoxic cytotoxicity ratio) SKOV3: IC50(aerobic)/IC10(hypoxic); for HCR SKOV3: IC50(aerobic)/IC50(hypoxic)
[3] = test system: HT29: human colon cancer cell line; experiment: Proliferation IC50 assay, oxic/hypoxic, HT29; assay type: cell-based; conditions: for IC50: 4 h exposure under aerobic conditions; for HCR (hypoxic cytotoxicity ratio) HT29: IC50(aerobic)/IC10(hypoxic); for HCR HT29: IC50(aerobic)/IC50(hypoxic)

COc1cc2cc(C(=O)N3CC(CCl)c4c3cc([N+](=O)[O-])c3cc(C(=O)NCCN(C)C)ccc43)[nH]c2c(OC)c1OC (stereo not drawn) [Compound 20, 1-(Chloromethyl)-N-[2-(dimethylamino)ethyl]-5-nitro-3-(5,6,7-trimethoxyindol-2-carbonyl)-1,2-dihydro-3H-benzo[e]indole-7-carboxamide]
E(1): one-electron reduction potential [1]: −427 ± 12 mV
IC50 ([2]; Homo sapiens, SK-OV-3, Table 3): 2000 nM
HCR (hypoxic cytotoxicity ratio) SKOV3 ([2]; Table 3): 24
IC50 ([3]; Homo sapiens, HT-29, Table 3): 1500 nM
HCR (hypoxic cytotoxicity ratio) HT29 ([3]; Table 3): 5.9

CN(C)CCOc1ccc2[nH]c(C(=O)N3CC(CCl)c4c3cc([N+](=O)[O-])c3ccc(C#N)cc43)cc2c1 (stereo not drawn) [Compound 45]
E(1): one-electron reduction potential [1]: −419 ± 8 mV
IC50 ([2]; Table 3): 1200 nM
HCR (hypoxic cytotoxicity ratio) SKOV3 ([2]; Table 3): 1.5
IC50 ([3]; Table 3): 1400 nM
HCR (hypoxic cytotoxicity ratio) HT29 ([3]; Table 3): 1.4

CN(C)CCOc1ccc2[nH]c(C(=O)N3CC(CCl)c4c3cc([N+](=O)[O-])c3ccc(S(C)(=O)=O)cc43)cc2c1 (stereo not drawn) [Compound 47, 1-(Chloromethyl)-3-{5-[2-(dimethylamino)ethoxy]indol-2-carbonyl}-8-(methylsulfonyl)-5-nitro-1,2-dihydro-3H-benzo[e]indole]
E(1): one-electron reduction potential [1]: −420 ± 8 mV
IC50 ([2]; Homo sapiens, SK-OV-3, Table 3): 1900 nM
HCR (hypoxic cytotoxicity ratio) SKOV3 ([2]; Table 3): 2.7
IC50 ([3]; Homo sapiens, HT-29, Table 3): 980 nM
HCR (hypoxic cytotoxicity ratio) HT29 ([3]; Table 3): 1.2

CN(C)CCOc1ccc2[nH]c(C(=O)N3CC(CCl)c4c3cc([N+](=O)[O-])c3c([N+](=O)[O-])cccc43)cc2c1 (stereo not drawn) [Compound 2, 1-(Chloromethyl)-3-(5-[2-(dimethylamino)ethoxy]indol-2-carbonyl)-5,6-dinitro-1,2-dihydro-3H-benzo[e]indole]
E(1): one-electron reduction potential [1]: −467 ± 8 mV
IC50 ([2]; Homo sapiens, SK-OV-3, Table 3): 4100 nM
HCR (hypoxic cytotoxicity ratio) SKOV3 ([2]; Table 3): 2.9
IC50 ([3]; Homo sapiens, HT-29, Table 3): 2800 nM
HCR (hypoxic cytotoxicity ratio) HT29 ([3]; Table 3): 2.2

CN(C)CCOc1ccc2[nH]c(C(=O)N3CC(CCl)c4c3cc([N+](=O)[O-])c3cc(S(C)(=O)=O)ccc43)cc2c1 (stereo not drawn) [Compound 24, 1-(Chloromethyl)-3-{5-[2-(dimethylamino)ethoxy]indol-2-carbonyl}-7-(methylsulfonyl)-5-nitro-1,2-dihydro-3H-benzo[e]indole]
E(1): one-electron reduction potential [1]: −362 ± 8 mV
IC50 ([2]; Homo sapiens, SK-OV-3, Table 3): 1300 nM
HCR (hypoxic cytotoxicity ratio) SKOV3 ([2]; Table 3): 11
IC50 ([3]; Homo sapiens, HT-29, Table 3): 970 nM
HCR (hypoxic cytotoxicity ratio) HT29 ([3]; Table 3): 4.0

COc1cc2cc(C(=O)N3CC(CCl)c4c3cc([N+](=O)[O-])c3cc(S(C)(=O)=O)ccc43)[nH]c2c(OC)c1OC (stereo not drawn) [Compound 23, 1-(Chloromethyl)-7-(methylsulfonyl)-5-nitro-3-(5,6,7-trimethoxyindol-2-carbonyl)-1,2-dihydro-3H-benzo[e]indole]
melting point: 296 to 297 °C (dec.)
IC50 ([2]; Homo sapiens, SK-OV-3, Table 3): 17000 nM
HCR (hypoxic cytotoxicity ratio) SKOV3 ([2]; Table 3): 1.9
IC50 ([3]; Homo sapiens, HT-29, Table 3): 14000 nM
HCR (hypoxic cytotoxicity ratio) HT29 ([3]; Table 3): 2.0

COC(=O)c1ccc2c3c(cc([N+](=O)[O-])c2c1)N(C(=O)c1cc2cc(OCCN(C)C)ccc2[nH]1)CC3CCl (stereo not drawn) [Compound 14, Methyl 1-(chloromethyl)-3-{5-[2-(dimethylamino)ethoxy]indol-2-carbonyl}-5-nitro-1,2-dihydro-3H-benzo[e]indole-7-carboxylate]
E(1): one-electron reduction potential [1]: −429 ± 8 mV
IC50 ([2]; Homo sapiens, SK-OV-3, Table 3): 440 nM
HCR (hypoxic cytotoxicity ratio) SKOV3 ([2]; Table 3): 1.9
IC50 ([3]; Homo sapiens, HT-29, Table 3): 320 nM
HCR (hypoxic cytotoxicity ratio) HT29 ([3]; Table 3): 1.2

COc1cc2cc(C(=O)N3CC(CCl)c4c3cc([N+](=O)[O-])c3cc(C(N)=O)ccc43)[nH]c2c(OC)c1OC (stereo not drawn) [Compound 15, 1-(Chloromethyl)-5-nitro-3-[5,6,7-trimethoxyindol-2-carbonyl]-1,2-dihydro-3H-benzo[e]indole-7-carboxamide]
melting point: 287 to 289 °C
IC50 ([2]; Homo sapiens, SK-OV-3, Table 3): 5800 nM
HCR (hypoxic cytotoxicity ratio) SKOV3 ([2]; Table 3): 6.1
IC50 ([3]; Homo sapiens, HT-29, Table 3): 7900 nM
HCR (hypoxic cytotoxicity ratio) HT29 ([3]; Table 3): 2.8

COc1cc2cc(C(=O)N3CC(CCl)c4c3cc(N)c3cc(S(C)(=O)=O)ccc43)[nH]c2c(OC)c1OC (stereo not drawn) [Compound 57, 5-Amino-1-(chloromethyl)-7-(methylsulfonyl)-3-(5,6,7-trimethoxyindol-2-carbonyl)-1,2-dihydro-3H-benzo[e]indole]
melting point: 266 to 268 °C
IC50 ([2]; Homo sapiens, SK-OV-3, Table 4): 32 nM
HCR SKOV3 ([2]; Table 4): 1.2
IC50 ([3]; Homo sapiens, HT-29, Table 4): 32 nM
HCR HT29 ([3]; Table 4): 0.86

COc1cc2cc(C(=O)N3CC(CCl)c4c3cc([N+](=O)[O-])c3ccc(S(C)(=O)=O)cc43)[nH]c2c(OC)c1OC (stereo not drawn) [Compound 46, 1-(Chloromethyl)-8-(methylsulfonyl)-5-nitro-3-(5,6,7-trimethoxyindol-2-carbonyl)-1,2-dihydro-3H-benzo[e]indole]
melting point: 265 °C
IC50 ([2]; Homo sapiens, SK-OV-3, Table 3): 11000 nM
HCR (hypoxic cytotoxicity ratio) SKOV3 ([2]; Table 3): 4.2
IC50 ([3]; Homo sapiens, HT-29, Table 3): 14000 nM
HCR (hypoxic cytotoxicity ratio) HT29 ([3]; Table 3): 2.5

CN(C)CCOc1ccc2[nH]c(C(=O)N3CC(CCl)c4c3cc(N)c3cc(C(N)=O)ccc43)cc2c1 (stereo not drawn) [Compound 55, 5-Amino-1-(chloromethyl)-3-{5-[2-(dimethylamino)ethoxy]indol-2-carbonyl}-1,2-dihydro-3H-benzo[e]indole-7-carboxamide]
melting point: 232 to 236 °C (dec.)
IC50 ([2]; Homo sapiens, SK-OV-3, Table 4): 13 nM
HCR SKOV3 ([2]; Table 4): 1.0
IC50 ([3]; Homo sapiens, HT-29, Table 4): 61 nM
HCR HT29 ([3]; Table 4): 1.4

CC(=O)c1ccc2c3c(cc(N)c2c1)N(C(=O)c1cc2cc(OCCN(C)C)ccc2[nH]1)CC3CCl (stereo not drawn) [Compound 53, 7-Acetyl-5-amino-1-(chloromethyl)-3-{5-[2-(dimethylamino)ethoxy]indol-2-carbonyl}-1,2-dihydro-3H-benzo[e]indole]
melting point: 220 to 224 °C (dec.)
IC50 ([2]; Homo sapiens, SK-OV-3, Table 4): 11 nM
HCR SKOV3 ([2]; Table 4): 1.4
IC50 ([3]; Homo sapiens, HT-29, Table 4): 7.6 nM
HCR HT29 ([3]; Table 4): 1.5

COc1ccc(/C=C/C(=O)N2CC(CCl)c3c2cc([N+](=O)[O-])c2cc(S(=O)(=O)NCCO)ccc32)cc1 (stereo not drawn) [Compound 37, 1-(Chloromethyl)-N-(2-hydroxyethyl)-3-[(E)-4-methoxycinnamoyl]-5-nitro-1,2-dihydro-3H-benzo[e]indole-7-sulfonamide]
melting point: 250 to 251 °C
IC50 ([2]; Homo sapiens, SK-OV-3, Table 3): 4700 nM
HCR (hypoxic cytotoxicity ratio) SKOV3 ([2]; Table 3): 3.4
IC50 ([3]; Homo sapiens, HT-29, Table 3): 4800 nM
HCR (hypoxic cytotoxicity ratio) HT29 ([3]; Table 3): 1.3

COc1cc2cc(C(=O)N3CC(CCl)c4c3cc([N+](=O)[O-])c3ccc(S(N)(=O)=O)cc43)[nH]c2c(OC)c1OC (stereo not drawn) [Compound 48, 1-(Chloromethyl)-5-nitro-3-(5,6,7-trimethoxyindol-2-carbonyl)-1,2-dihydro-3H-benzo[e]indole-8-sulfonamide]
melting point: 264 to 266 °C (dec.)
IC50 ([2]; Homo sapiens, SK-OV-3, Table 3): 12000 nM
HCR (hypoxic cytotoxicity ratio) SKOV3 ([2]; Table 3): 2.6
IC50 ([3]; Homo sapiens, HT-29, Table 3): 24000 nM
HCR (hypoxic cytotoxicity ratio) HT29 ([3]; Table 3): 1.9

CN(C)CCOc1ccc2[nH]c(C(=O)N3CC(S(=O)(=O)NCCO)c4c3cc(N)c3c(CCl)cccc43)cc2c1 (stereo not drawn) [Compound 62, 5-Amino-6-(chloromethyl)-3-{5-[2-(dimethylamino)ethoxy]indol-2-carbonyl}-N-(2-hydroxyethyl)-1,2-dihydro-3H-benzo[e]indole-1-sulfonamide]
melting point: 225 to 230 °C
IC50 ([2]; Homo sapiens, SK-OV-3, Table 4): 34 nM
HCR SKOV3 ([2]; Table 4): 1.1
IC50 ([3]; Homo sapiens, HT-29, Table 4): 94 nM
HCR HT29 ([3]; Table 4): 1.0

CN(C)CCOc1ccc2[nH]c(C(=O)N3CC(CCl)c4c3cc(N)c3cc(S(N)(=O)=O)ccc43)cc2c1 (stereo not drawn) [Compound 60, 5-Amino-1-(chloromethyl)-3-{5-[2-(dimethylamino)ethoxy]indol-2-carbonyl}-1,2-dihydro-3H-benzo[e]indole-7-sulfonamide]
melting point: 260 to 266 °C (dec.)
IC50 ([2]; Homo sapiens, SK-OV-3, Table 4): 23 nM
HCR SKOV3 ([2]; Table 4): 1.4
IC50 ([3]; Homo sapiens, HT-29, Table 4): 35 nM
HCR HT29 ([3]; Table 4): 1.8

CN(C)CCOc1ccc2[nH]c(C(=O)N3CC(CCl)c4c3cc([N+](=O)[O-])c3cccc([N+](=O)[O-])c43)cc2c1 (stereo not drawn) [Compound 52, 1-(Chloromethyl)-3-{5-[2-(dimethylamino)ethoxy]indol-2-carbonyl}-5,9-dinitro-1,2-dihydro-3H-benzo[e]indole]
E(1): one-electron reduction potential [1]: −477 ± 7 mV
IC50 ([2]; Homo sapiens, SK-OV-3, Table 3): 1200 nM
HCR (hypoxic cytotoxicity ratio) SKOV3 ([2]; Table 3): 1.5
IC50 ([3]; Homo sapiens, HT-29, Table 3): 1400 nM
HCR (hypoxic cytotoxicity ratio) HT29 ([3]; Table 3): 1.3

CN(C)CCOc1ccc2[nH]c(C(=O)N3CC(CCl)c4c3cc(N)c3cc(C#N)ccc43)cc2c1 (stereo not drawn) [Compound 56, 5-Amino-1-(chloromethyl)-3-{5-[2-(dimethylamino)ethoxy]indol-2-carbonyl}-1,2-dihydro-3H-benzo[e]indole-7-carbonitrile]
melting point: 250 to 255 °C (dec.)
IC50 ([2]; Homo sapiens, SK-OV-3, Table 4): 13 nM
HCR SKOV3 ([2]; Table 4): 1.1
IC50 ([3]; Homo sapiens, HT-29, Table 4): 17 nM
HCR HT29 ([3]; Table 4): 2.0

COc1cc2cc(C(=O)N3CC(CCl)c4c3cc(N)c3cc(S(N)(=O)=O)ccc43)[nH]c2c(OC)c1OC (stereo not drawn) [Compound 59, 5-Amino-1-(chloromethyl)-3-(5,6,7-trimethoxyindol-2-carbonyl)-1,2-dihydro-3H-benzo[e]indole-7-sulfonamide]
melting point: 240 to 245 °C (dec.)
IC50 ([2]; Homo sapiens, SK-OV-3, Table 4): 41 nM
HCR SKOV3 ([2]; Table 4): 1.3
IC50 ([3]; Homo sapiens, HT-29, Table 4): 86 nM
HCR HT29 ([3]; Table 4): 1.1

CN(C)CCOc1ccc2[nH]c(C(=O)N3CC(CCl)c4c3cc(N)c3cc(S(C)(=O)=O)ccc43)cc2c1 (stereo not drawn) [Compound 58, 5-Amino-1-(chloromethyl)-3-{5-[2-(dimethylamino)ethoxy]indol-2-carbonyl}-7-(methylsulfonyl)-1,2-dihydro-3H-benzo[e]indole]
melting point: 280 to 285 °C
IC50 ([2]; Homo sapiens, SK-OV-3, Table 4): 14 nM
HCR SKOV3 ([2]; Table 4): 1.7
IC50 ([3]; Homo sapiens, HT-29, Table 4): 11 nM
HCR HT29 ([3]; Table 4): 1.6

CC(=O)c1ccc2c([N+](=O)[O-])cc3c(c2c1)C(CCl)CN3C(=O)c1cc2cc(OCCN(C)C)ccc2[nH]1 (stereo not drawn) [Compound 41, 8-Acetyl-1-(chloromethyl)-3-{5-[2-(dimethylamino)ethoxy]indol-2-carbonyl}-5-nitro-1,2-dihydro-3H-benzo[e]indole]
melting point: 210 to 215 °C
IC50 ([2]; Homo sapiens, SK-OV-3, Table 3): 200 nM
HCR (hypoxic cytotoxicity ratio) SKOV3 ([2]; Table 3): 1.3
IC50 ([3]; Homo sapiens, HT-29, Table 3): 150 nM
HCR (hypoxic cytotoxicity ratio) HT29 ([3]; Table 3): 1.1
